Experimental data from patent US20210379066A1, “COMBINATIONS OF POSITIVE ALLOSTERIC MODULATORS AND NICOTINIC ACETYLCHOLINE RECEPTOR AGONISTS FOR TREATING OCULAR CONDITIONS” (Oyster Point Pharma, Inc., priority 2018, published 2021).

Experiments:
[1] = Measured plasma Cmax after nasal spray (Example 4); type: in vivo; conditions: human, inhaled or intranasal; blood plasma of 30 individuals; nasal spray of 1.1% compound 1 free base (2.0% hemi-galactarate dihydrate), 200 microliters total, about 2216 micrograms free base
Description: A dose of a nAChR agonist, or a pharmaceutically acceptable salt thereof, is administered to an individual. Examples of dose and volume ranges are described herein.
A blood sample is collected from an individual before administration of a nAChR agonist, or a pharmaceutically acceptable salt thereof. After administration of the nAChR agonist, or a pharmaceutically acceptable salt thereof, to the individual, multiple blood samples are collected over a period of time at certain intervals. For instance, blood samples are collected at 10 minutes, 20 minutes, 30 minutes, 1 hour, 2 hours, 3 hours, and 4 hours after administration of the nAChR agonist, or a pharmaceutically acceptable salt thereof.
Blood samples (4 mL in K2EDTA tubes) are collected from an arm vein into Vacutainer tubes containing K2EDTA. […]
All pharmacokinetic (PK) analyses and reporting are performed according to generally accepted standard operating procedures and protocol specifications. Pharmacokinetic parameters are calculated by use of generally accepted software tools, for instance Phoenix® WinNonlin® 8.0.
A plasma concentration time plot is created by plotting the concentration of the nAChR agonist, or pharmaceutically acceptable salt thereof, as a function of time. Cmax is calculated by inspection of an individual's plasma concentration time plot. […] The Cmax is calculated for an individual after a treatment. […]

[2] = target: T1, human nAChR alpha4alpha6beta2 (Homo sapiens, UniProt P17787+P43681+Q15825); assay: Agonist activity, two-electrode voltage clamp in Xenopus oocytes (Example 5); type: cell-based; conditions: versus ACh response
T1 construct: expressed in transfected cells; host or cells: Xenopus laevis oocytes (cDNA injection)
Description: All experiments were carried out at human nAChRs expressed in Xenopus oocytes using the method of cDNA expression. Xenopus oocytes were prepared and injected using standard procedures.
Briefly, ovaries were harvested from Xenopus Laevis females that have been deeply anesthetized by cooling at 4° C. and Tricaine methanesulfonate (MS-222 at a concentration of 150 mg/L) in sodium bicarbonate (300 mg/L). Once anesthetized the animal was decapitated and pithed following the rules of animal rights from the Geneva canton. A small piece of ovary was isolated for immediate preparation while the remaining part was placed at 4° C. in a sterile Barth solution containing in mM NaCl 88, KCl 1, NaHCO32.4, HEPES 10, MgSO4.7H2O 0.82, Ca(NO3)2.4H2O 0.33, CaCl2.6H2O 0.41, at pH 7.4, and supplemented with 20 μg/ml of kanamycin, 100 unit/ml penicillin. All recordings were performed at 18° C. and cells superfused with OR2 medium containing in mM: NaCl 88, KCl 2.5, HEPES 5, CaCl2.2H2O 1.8, MgCl2.6H2O 1, pH 7.4.
Currents evoked by ACh or other agonists were recorded using an automated process equipped with standard two-electrode voltage-clamp configuration (TEVC). Data were captured and analyzed using a HiQScreen proprietary data acquisition and analysis software running under Matlab (Mathworks Inc.).
Agonist Preparation: See Example 1. […] The test concentration of acetylcholine chloride was 1280 micromolar.
Experimental Procedures: Injections of cDNAs encoding for the human alpha3beta4, alpha3alpha5beta4, alpha4beta2, alpha4alpha6beta2, and alpha7 were performed in at least 95 oocytes using a proprietary automated injection device. Cellular receptor expression was examined at least two days later. Oocytes were poked with two electrodes and their membrane potential maintained, unless indicated, at −80 mV throughout the experiment.
A protocol to determine agonistic activity in the oocytes expressing the nAChRs was developed. Oocytes expressing a nAChR subtype were exposed to a brief test pulse of acetylcholine (1280 micromolar) while the holding current and response was evaluated. Cells displaying robust currents were washed for 90 seconds. The cells were then exposed to a series of increasing concentrations of a nAChR agonist for 10 seconds each at two minute intervals. The nAChR agonist test concentrations were 0.1, 0.3, 1, 3, 10, 30, 100, 300 (micromolar). The current evoked from exposure to the agonist at each concentration was recorded. For oocytes expressing alpha7 nAChRs, exposure to the agonist was reduced to 5 seconds. This process was repeated for each agonist tested against each type of nAChR expressing cell.

[3] = target: nAChR subtype alpha3beta2 (Homo sapiens, UniProt P17787+P32297); assay: Agonist characterisation versus ACh response (description); type: cell-based
From the text: nAChR agonist response, from which receptor activation can be determined can, for example, be generated using an appropriate cell-based assay. Cells designed to express a particular nAChR receptor subtype and generate an electrical current response when bound to and activated by a nAChR agonist can be used to characterize the agonist profile of a compound and the amount of receptor activation thus determined. An example of a generic protocol is described below.
Cells that express a particular human nAChR subtype are first exposed to ACh. ACh binds and activates the receptor, thereby evoking a current. The concentration of the ACh is chosen to elicit the maximum response of the receptor (e.g., 1280 micromolar ACh). This current is recorded as the ACh response and serves as the 100% nAChR agonist response and to which responses to other nAChR agonists are compared. After washing, the cells are exposed to a nAChR agonist at various concentrations (e.g., 0.1, 0.3, 1, 3, 10, 30, 100, and 300 micromolar). The current evoked by exposure to the nAChR agonist is measured and recorded for each nAChR concentration. This nAChR agonist response data is then normalized to unity versus the maximal ACh evoked current and plotted as a function of the logarithm of the nAChR agonist concentration. The nAChR agonist response is then calculated as a percentage of the ACh response.

T1 sequence (P43681 29-627 limits assumed): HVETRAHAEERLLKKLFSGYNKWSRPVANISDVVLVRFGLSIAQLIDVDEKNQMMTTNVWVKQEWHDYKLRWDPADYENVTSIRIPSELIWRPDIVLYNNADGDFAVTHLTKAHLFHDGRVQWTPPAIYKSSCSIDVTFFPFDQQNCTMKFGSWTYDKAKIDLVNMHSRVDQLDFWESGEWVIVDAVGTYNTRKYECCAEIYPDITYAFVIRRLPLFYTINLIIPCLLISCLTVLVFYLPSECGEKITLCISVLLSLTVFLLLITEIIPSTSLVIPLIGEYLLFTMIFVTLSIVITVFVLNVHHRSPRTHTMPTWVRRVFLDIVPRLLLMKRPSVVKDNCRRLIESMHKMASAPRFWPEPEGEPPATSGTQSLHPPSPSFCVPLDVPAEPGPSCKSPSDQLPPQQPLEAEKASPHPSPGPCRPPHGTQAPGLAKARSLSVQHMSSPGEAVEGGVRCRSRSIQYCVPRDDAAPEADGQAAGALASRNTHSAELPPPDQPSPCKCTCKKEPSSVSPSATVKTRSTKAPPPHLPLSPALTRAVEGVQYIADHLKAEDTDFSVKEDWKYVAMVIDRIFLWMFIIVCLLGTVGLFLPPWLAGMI
T1 sequence (Q15825 26-494): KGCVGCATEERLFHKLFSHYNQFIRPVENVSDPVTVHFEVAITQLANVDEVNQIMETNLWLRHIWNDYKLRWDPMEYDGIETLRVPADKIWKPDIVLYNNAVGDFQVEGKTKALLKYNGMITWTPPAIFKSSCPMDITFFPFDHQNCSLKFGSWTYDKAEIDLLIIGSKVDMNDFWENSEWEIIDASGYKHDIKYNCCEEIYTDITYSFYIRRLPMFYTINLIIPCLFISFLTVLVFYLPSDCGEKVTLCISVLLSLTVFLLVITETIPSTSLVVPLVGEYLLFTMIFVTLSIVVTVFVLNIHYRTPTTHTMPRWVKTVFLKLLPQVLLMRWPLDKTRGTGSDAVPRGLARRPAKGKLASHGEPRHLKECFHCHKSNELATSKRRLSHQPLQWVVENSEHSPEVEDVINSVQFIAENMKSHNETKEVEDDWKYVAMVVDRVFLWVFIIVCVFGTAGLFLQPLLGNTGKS
T1 sequence (P17787 26-502): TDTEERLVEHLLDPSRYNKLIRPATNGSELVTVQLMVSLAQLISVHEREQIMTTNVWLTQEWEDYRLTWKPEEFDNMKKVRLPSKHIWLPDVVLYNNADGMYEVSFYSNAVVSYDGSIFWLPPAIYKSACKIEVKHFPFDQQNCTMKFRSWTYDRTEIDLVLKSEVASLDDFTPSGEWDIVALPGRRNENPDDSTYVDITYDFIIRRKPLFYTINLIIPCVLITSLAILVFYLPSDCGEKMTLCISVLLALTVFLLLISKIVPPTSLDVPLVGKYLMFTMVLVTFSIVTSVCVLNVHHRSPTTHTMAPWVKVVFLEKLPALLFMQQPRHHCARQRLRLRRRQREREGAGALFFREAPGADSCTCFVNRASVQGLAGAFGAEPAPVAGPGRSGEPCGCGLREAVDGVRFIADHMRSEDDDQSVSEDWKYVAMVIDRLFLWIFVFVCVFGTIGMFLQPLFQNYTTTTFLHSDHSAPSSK
Chain of nAChR subtype alpha3beta2 (P32297 32-505): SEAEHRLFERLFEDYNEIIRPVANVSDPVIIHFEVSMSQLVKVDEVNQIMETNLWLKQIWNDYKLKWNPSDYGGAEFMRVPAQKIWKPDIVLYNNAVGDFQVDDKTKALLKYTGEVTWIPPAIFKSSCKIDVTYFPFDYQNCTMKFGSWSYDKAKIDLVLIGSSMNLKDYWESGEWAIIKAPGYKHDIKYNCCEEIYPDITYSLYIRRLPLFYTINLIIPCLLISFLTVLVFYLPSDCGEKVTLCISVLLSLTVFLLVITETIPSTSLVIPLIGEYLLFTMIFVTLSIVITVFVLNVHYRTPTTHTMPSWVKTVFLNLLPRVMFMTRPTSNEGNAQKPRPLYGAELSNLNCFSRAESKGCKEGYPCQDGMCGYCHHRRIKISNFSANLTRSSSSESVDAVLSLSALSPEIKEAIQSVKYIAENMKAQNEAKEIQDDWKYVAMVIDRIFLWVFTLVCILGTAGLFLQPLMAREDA
Chain of nAChR subtype alpha3beta2 (P17787 26-502): as the sequence (P17787 26-502) above

SMILES: C(=C\[C@H]1CCNC1)/c1cncnc1 [Compound 1, (R)-5-((E)-2-pyrrolidin-3-ylvinyl)pyrimidine]
- Cmax [1]: 2.92 ng/mL
- agonist character [2]: full agonist
- agonist character [3]: partial agonist
